Data set [1] relates to HSD1 enzyme that is expressed in rabbit placenta tissue. In words: Inhibition of E1 to E2 conversion in rabbit placenta tissue homogenate. The class given is biochemical. To be noted: compound 100 nM, 30 nM estrone, 1 mM β-NADPH, 30 min. In outline: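 Rabbit placenta homogenate (20 mM KH2PO4, 1 mM EDTA, pH 7.4) incubated 30 min with 1 mM β-NADPH, 30 nM estrone plus 5 nM [3H]-estrone tracer, and inhibitor at 1 μM or 0.1 μM (1% DMSO). Stopped with TCA; estrone and estradiol resolved by HPLC with scintillation counting; % inhibition = 100 − % conversion relative to uninhibited control.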

The nature of data set [2]: Metabolic stability assay, human hepatocyte incubations. The class given is in vitro ADME. To be noted: compound 1 μM, human hepatocytes, 0-60 min at 37° C.; read-out: Human hepatocytes MetStab T½ min. The procedure:
Compound stock solutions of the invention were prepared in […]. Final concentration of DMSO was adjusted to 1% in all samples. The in vitro metabolic stability of the compounds of the invention was determined for exemplified compounds using human hepatocyte incubations; study compounds at concentration of 1 μM were incubated 0, 10, 20, 40 and 60 min at 37° C. Samples were collected at all time points and compounds were detected by LC-MS/MS analysis. The percent compound remaining is calculated by comparing the peak area of the parent compound at each time point to time zero. In vitro metabolic stability was determined as half life (T1/2), which was determined by regression analysis of the percent parent disappearance vs. time curve.

Molecules are shown by their SMILES.

The results in this text go back to patent US20220041647A1, “ESTRA-1,3,5(10)-TRIENE COMPOUNDS CONDENSED IN POSITION 16(17) WITH A PYRAZOLE RING AS INHIBITORS OF 17-HSD1” (FORENDO PHARMA LTD, priority 2018, published 2022).

Turning to `C[C@]12CCC3c4cccc(F)c4CCC3C1[C@H](CCC(=O)Nc1ncc(F)cc1F)c1c[nH]nc12` (stereo partly drawn) [Compound 9, N-(3,5-difluoropyridin-2-yl)-3-((8aS,12S)-3-fluoro-8a-methyl-1,2,6b,7,8,8a,10,12,12a,12b-decahydronaphtho[2′,1′:4,5]indeno[1,2-c]pyrazol-12-yl)propanamide], the “Rabbit placenta inhibition % @100 nM” value in data set [1] worked out at 26%. The half-life at 1 μM in data set [2] turned out to be 1.02 h.
The like results for `C[C@]12CCC3c4cccc(F)c4CCC3C1[C@H](CCC(=O)Nc1cc(F)ccn1)c1c[nH]nc12` (stereo partly drawn) [Compound 15, 3-((8aS,12S)-3-fluoro-8a-methyl-1,2,6b,7,8,8a,10,12,12a,12b-decahydronaphtho[2′,1′:4,5]indeno[1,2-c]pyrazol-12-yl)-N-(4-fluoropyridin-2-yl)propanamide] were, in that order, 64% and 0.717 h.
The like results for `C[C@]12CCC3c4cccc(F)c4CCC3C1[C@H](CCC(=O)Nc1ccccn1)c1c[nH]nc12` (stereo partly drawn) [Compound 18, 3-((8aS,12S)-3-fluoro-8a-methyl-1,2,6b,7,8,8a,10,12,12a,12b-decahydronaphtho[2′,1′:4,5]indeno[1,2-c]pyrazol-12-yl)-N-(pyridin-2-yl)propanamide] were, in that order, 44% and 0.683 h.
For `COc1ccc(NC(=O)CC[C@@H]2c3c[nH]nc3[C@@]3(C)CCC4c5cccc(F)c5CCC4C23)nc1` (stereo partly drawn) [Compound 21, 3-((8aS,12S)-3-fluoro-8a-methyl-1,2,6b,7,8,8a,10,12,12a,12b-decahydronaphtho[2′,1′:4,5]indeno[1,2-c]pyrazol-12-yl)-N-(5-methoxypyridin-2-yl)propanamide], in that order: 68% and 0.667 h.
For the compound `C[C@]12CCC3c4cccc(F)c4CCC3C1[C@H](CCC(=O)N1CCNC(=O)C1)c1c[nH]nc12` (stereo partly drawn) [Compound 24, 4-(3-((8aS,12S)-3-fluoro-8a-methyl-1,2,6b,7,8,8a,10,12,12a,12b-decahydronaphtho[2′,1′:4,5]indeno[1,2-c]pyrazol-12-yl)propanoyl)piperazin-2-one], the “Rabbit placenta inhibition % @100 nM” value in data set [1] was determined as 27%. Besides, the half-life at 1 μM in data set [2] worked out at 0.55 h.
For `C[C@]12CCC3c4cccc(F)c4CCC3C1[C@H](CCC(=O)Nc1cc3c([nH]c1=O)CCCC3)c1c[nH]nc12` (stereo partly drawn) [Compound 30, 3-((8aS,12S)-3-fluoro-8a-methyl-1,2,6b,7,8,8a,10,12,12a,12b-decahydronaphtho[2′,1′:4,5]indeno[1,2-c]pyrazol-12-yl)-N-(2-oxo-1,2,5,6,7,8-hexahydroquinolin-3-yl)propanamide], in that order: 53% and 1.95 h.
Regarding `CN(C)C(=O)c1ccc(NC(=O)CC[C@@H]2c3c[nH]nc3[C@@]3(C)CCC4c5cccc(F)c5CCC4C23)nc1` (stereo partly drawn) [Compound 33, 6-(3-((8aS,12S)-3-fluoro-8a-methyl-1,2,6b,7,8,8a,10,12,12a,12b-decahydronaphtho[2′,1′:4,5]indeno[1,2-c]pyrazol-12-yl)propanamido)-N,N-dimethylnicotinamide], in data set [1], the “Rabbit placenta inhibition % @100 nM” value was 68%. Moreover, the half-life at 1 μM in data set [2] is 1.78 h.
For `CC(C)c1ccc(NC(=O)CC[C@@H]2c3c[nH]nc3[C@@]3(C)CCC4c5cccc(F)c5CCC4C23)nc1` (stereo partly drawn) [Compound 36, 3-((8aS,12S)-3-fluoro-8a-methyl-1,2,6b,7,8,8a,10,12,12a,12b-decahydronaphtho[2′,1′:4,5]indeno[1,2-c]pyrazol-12-yl)-N-(5-isopropylpyridin-2-yl)propanamide], in that order: 55% and 0.617 h.
For `C[C@]12CCC3c4cccc(F)c4CCC3C1[C@H](CCC(=O)Nc1ccc(N3CCOCC3)cn1)c1c[nH]nc12` (stereo partly drawn) [Compound 39, 3-((8aS,12S)-3-fluoro-8a-methyl-1,2,6b,7,8,8a,10,12,12a,12b-decahydronaphtho[2′,1′:4,5]indeno[1,2-c]pyrazol-12-yl)-N-(5-morpholinopyridin-2-yl)propanamide], in that order: 69% and 1.12 h.
For the compound `CN1CCN(c2ccc(NC(=O)CC[C@@H]3c4c[nH]nc4[C@@]4(C)CCC5c6cccc(F)c6CCC5C34)nc2)CC1` (stereo partly drawn) [Compound 42, 3-((8aS,12S)-3-fluoro-8a-methyl-1,2,6b,7,8,8a,10,12,12a,12b-decahydronaphtho[2′,1′:4,5]indeno[1,2-c]pyrazol-12-yl)-N-(5-(4-methylpiperazin-1-yl)pyridin-2-yl)propanamide], the “Rabbit placenta inhibition % @100 nM” value in data set [1] is 82%. Also, the half-life at 1 μM in data set [2] is 0.783 h.
For `COc1ccnc(NC(=O)CC[C@@H]2c3c[nH]nc3[C@@]3(C)CCC4c5cccc(F)c5CCC4C23)c1` (stereo partly drawn) [Compound 48, 3-((8aS,12S)-3-fluoro-8a-methyl-1,2,6b,7,8,8a,10,12,12a,12b-decahydronaphtho[2′,1′:4,5]indeno[1,2-c]pyrazol-12-yl)-N-(4-methoxypyridin-2-yl)propanamide], in that order: 57% and 0.567 h.
The like results for `C[C@]12CCC3c4cccc(F)c4CCC3C1[C@H](CCC(=O)Nc1cnccn1)c1c[nH]nc12` (stereo partly drawn) [Compound 51, 3-((8aS,12S)-3-fluoro-8a-methyl-1,2,6b,7,8,8a,10,12,12a,12b-decahydronaphtho[2′,1′:4,5]indeno[1,2-c]pyrazol-12-yl)-N-(pyrazin-2-yl)propanamide] were, in that order, 59% and 0.517 h.
On to `Cn1ccc(NC(=O)CC[C@@H]2c3c[nH]nc3[C@@]3(C)CCC4c5cccc(F)c5CCC4C23)n1` (stereo partly drawn) [Compound 54, 3-((8aS,12S)-3-fluoro-8a-methyl-1,2,6b,7,8,8a,10,12,12a,12b-decahydronaphtho[2′,1′:4,5]indeno[1,2-c]pyrazol-12-yl)-N-(1-methyl-1H-pyrazol-3-yl)propanamide], for which the “Rabbit placenta inhibition % @100 nM” value in data set [1] is given as 52%. In addition, the half-life at 1 μM in data set [2] is 1.13 h.
For `C[C@]12CCC3c4cccc(F)c4CCC3C1[C@H](CCC(=O)N1Cc3ccccc3C1)c1c[nH]nc12` (stereo partly drawn) [Compound 57, 3-((8aS,12S)-3-fluoro-8a-methyl-1,2,6b,7,8,8a,10,12,12a,12b-decahydronaphtho[2′,1′:4,5]indeno[1,2-c]pyrazol-12-yl)-1-(isoindolin-2-yl)propan-1-one], in that order: 48% and 0.967 h.
Regarding `COc1ccc(NC(=O)CC[C@@H]2c3c[nH]nc3[C@@]3(C)CCC4c5ccc(F)cc5CCC4C23)nc1` (stereo partly drawn) [Compound 84, 3-((8aS,12S)-4-fluoro-8a-methyl-1,2,6b,7,8,8a,10,12,12a,12b-decahydronaphtho[2′,1′:4,5]indeno[1,2-c]pyrazol-12-yl)-N-(5-methoxypyridin-2-yl)propanamide], the “Rabbit placenta inhibition % @100 nM” value in data set [1] worked out at 27%. Moreover, the half-life at 1 μM in data set [2] turned out to be 2.47 h.
In the case of `CC(C)c1ccc(NC(=O)CC[C@@H]2c3c[nH]nc3[C@@]3(C)CCC4c5ccc(F)cc5CCC4C23)nc1` (stereo partly drawn) [Compound 87, 3-((8aS,12S)-4-fluoro-8a-methyl-1,2,6b,7,8,8a,10,12,12a,12b-decahydronaphtho[2′,1′:4,5]indeno[1,2-c]pyrazol-12-yl)-N-(5-isopropylpyridin-2-yl)propanamide], in data set [1], the “Rabbit placenta inhibition % @100 nM” value is given as 16%. Also, the half-life at 1 μM in data set [2] came out at 2.12 h.
The like results for `COc1ccnc(NC(=O)CC[C@@H]2c3c[nH]nc3[C@@]3(C)CCC4c5ccc(F)cc5CCC4C23)c1` (stereo partly drawn) [Compound 90, 3-((8aS,12S)-4-fluoro-8a-methyl-1,2,6b,7,8,8a,10,12,12a,12b-decahydronaphtho[2′,1′:4,5]indeno[1,2-c]pyrazol-12-yl)-N-(4-methoxypyridin-2-yl)propanamide] were, in that order, 30% and 1.28 h.
For `Cc1ccnc(NC(=O)CC[C@@H]2c3c[nH]nc3[C@@]3(C)CCC4c5ccc(F)cc5CCC4C23)c1` (stereo partly drawn) [Compound 93, 3-((8aS,12S)-4-fluoro-8a-methyl-1,2,6b,7,8,8a,10,12,12a,12b-decahydronaphtho[2′,1′:4,5]indeno[1,2-c]pyrazol-12-yl)-N-(4-methylpyridin-2-yl)-propanamide], in that order: 31% and 1.1 h.
The like results for `C[C@]12CCC3c4ccc(F)cc4CCC3C1[C@H](CCC(=O)Nc1ccc(N3CCOCC3)cn1)c1c[nH]nc12` (stereo partly drawn) [Compound 96, 3-((8aS,12S)-4-fluoro-8a-methyl-1,2,6b,7,8,8a,10,12,12a,12b-decahydronaphtho[2′,1′:4,5]indeno[1,2-c]pyrazol-12-yl)-N-(5-morpholinopyridin-2-yl)propanamide] were, in that order, 42% and 1.25 h.
In the case of `C[C@]12CCC3c4ccc(F)cc4CCC3C1[C@H](CCC(=O)Nc1ccc(F)cn1)c1c[nH]nc12` (stereo partly drawn) [Compound 99, 3-((8aS,12S)-4-fluoro-8a-methyl-1,2,6b,7,8,8a,10,12,12a,12b-decahydronaphtho[2′,1′:4,5]indeno[1,2-c]pyrazol-12-yl)-N-(5-fluoropyridin-2-yl)propanamide], the “Rabbit placenta inhibition % @100 nM” value in data set [1] is 10%. Moreover, the half-life at 1 μM in data set [2] came to 1.62 h.
